Article PMC4028696, “Development of a screen to identify selective small molecules active against patient-derived metastatic and chemoresistant breast cancer cells” (Breast Cancer Research : BCR, 2013)

How the values were obtained:
[1] = Dose response assay, ATPlite viability, four days; type: cell-based; conditions: human, MCF-10A cells, 200 μM C-6, read-out: cells still viable
Protocol: Cells were seeded in white 96-well plates (Costar, Tewksbury, MA, USA) in 100 μL of their respective media at varying densities to achieve 80% to 90% confluency after five days in culture. The compounds dissolved in DMSO were diluted in their corresponding media containing 2% FBS and an EP Motion 5075 (Eppendorf North America, Hauppauge, NY, USA) liquid handler was utilized to perform a serial dilution. […] After the cells were cultured for 24 hours, the media were aspirated and the cells were treated with the compounds and vehicle controls in triplicate. After four days of treatment, viability was determined utilizing the ATPlite 1step assay system (Perkin Elmer, Waltham, MA, USA) according to the manufacturer's instructions. Luminescence measurements were acquired utilizing a Perkin Elmer 2104 EnVision plate reader. Raw luminescence values were normalized to the DMSO vehicle control wells.

[2] = Chemical screen, difference in ATP viability between normal and tumor cells; type: cell-based; conditions: human, four days, duplicate, read-out: difference in viability between the hTERT-HMEC and PE1007070 cells (selectivity)
Protocol: The hTERT-HMEC and PE1007070 cells were seeded in white 96-well plates (Costar) in 100 μL of modified M87 media at varying densities to achieve 80% to 90% confluency at the end of the assay. The 10 mM DMSO stock solutions from the 560-compound University of Utah Department of Chemistry library were diluted with modified M87 media utilizing an EP Motion 5075 (Eppendorf North America) liquid handler. In addition, corresponding DMSO vehicle and doxorubicin controls were prepared in modified M87 media. After the cells were cultured for 24 hours, 80 μL of media was aspirated from each well. […] After four days of treatment, viability was determined utilizing the ATPlite 1step assay system (Perkin Elmer) according to the manufacturer's instructions. Luminescence measurements were acquired utilizing a Perkin Elmer 2104 EnVision plate reader. Raw luminescence values were normalized to the DMSO vehicle control wells for each plate and cell type. […]
Reagent/ compound dispensing system Eppendorf EP Motion 5075 (Compound dilution) Detection instrument and software Luminescence was detected with a Perkin Elmer Envision 2104 Assay validation/QC 20 µM Doxorubicin was used as a positive control and used to […]
Additional comments Selectivity of compounds was determined by subtracting the average viability of the PE1007070 from the hTERT-HMEC cells […]

[3] = tested on: MCF-10A cells; test: AAF-Glo released protease (cell death) assay; type: cell-based, human; conditions: 30 μM, 24 to 120 hours, vs DMSO
Protocol: (§1) Adherent cells were seeded in two identical white 96-well plates (Costar) in 100 μL of their respective media at varying densities to achieve 80% to 90% confluency at the end of the assay. After 24 hours, the media were aspirated and the cells were treated with 30 μM C-6 or a matched 0.03% (v/v) DMSO vehicle control in the corresponding media containing 2% FBS. For suspension cultures, cells were first seeded in 75 μL of media. At the start of treatment, 25 μL of a 4× concentration of C-6 or a matched (v/v) DMSO vehicle control was added to each well such that the final volume in each well was 100 μL and the final concentration of C-6 was 30 μM. For the caspase activity assays, additional wells were treated with 1 μM staurosporine. After culturing for the appropriate amount of time, either the AAF-Glo or Caspase-Glo assays (Promega, Madison, WI, USA) were performed on one 96-well plate according to the manufacturer's instructions. For the Caspase-Glo assay, cell viability was determined for the additional 96-well plate utilizing the ATPlite 1step assay system (Perkin Elmer) according to the manufacturer's instructions. For the AAF-Glo assay, the total protein in each well of the additional plate was measured using the BCA protein assay kit (Peirce, Rockford, IL, USA). Luminescence measurements were acquired utilizing a Perkin Elmer 2104 EnVision plate reader. Raw luminescence values for each assay were normalized to the DMSO vehicle control wells. The values for the Caspase-Glo or AAF-Glo assays were then normalized to the ATPlite values or total protein, respectively, in order to account for differences in cell numbers and were plotted as an average ± SD of four wells per condition.

[4] = tested on: MCF-7 cells; test: AAF-Glo released protease (cell death) assay; type: cell-based, human; conditions: MCF-7, 30 μM, 24 to 120 hours, vs DMSO
Protocol: as §1

[5] = tested on: MDA-MB-231 cells; test: AAF-Glo released protease (cell death) assay; type: cell-based, human; conditions: MDA-MB-231, 30 μM, 24 to 120 hours
Protocol: as §1

[6] = tested on: PE cells from three different patients; test: AAF-Glo released protease (cell death) assay; type: cell-based, human; conditions: 30 μM, 24 to 120 hours, vs DMSO
Protocol: as §1

[7] = tested on: PE1008032 cells; test: AAF-Glo released protease (cell death) assay; type: cell-based, human; conditions: PE1008032, 30 μM, 24 to 120 hours
Protocol: as §1

[8] = Solubility (stated property); type: physicochemical

- solubility [8]: poor solubility
Structure (SMILES): COc1cc(OC)cc(C(C)c2ccc(NC(=O)OC(C)(C)C)cc2)c1 (centres unmarked) [C-6]
- viability at 4 days, 200 μM [1]: > 70%
- viability difference, normal minus tumor cells (selectivity) at 4 days, 20 µM [2]: 62%
- relative AAF-Glo activity [3]: did not cause an increase
- relative AAF-Glo activity [4]: significant increase
- relative AAF-Glo activity [5]: did not have increased AAF-Glo activity
- relative AAF-Glo activity [6]: significant increase
- relative AAF-Glo activity [7]: did not have increased AAF-Glo activity
